Assay results published in the NIST ThermoML archive (doi:10.1016/j.jct.2014.08.005).

Columns and labels:
[1] = Liquid, Vibrating tube method
[2] = wn = mass fraction of the nth substance listed; conditions: 101 kPa, Liquid, Vibrating tube method

OCCOCCOCCO [triethylene glycol]
[1], 101.33 kPa
Conditions | mass density [kg/m3]
293.15 K | 1124.7
303.15 K | 1117
313.15 K | 1109.2
323.15 K | 1101.5
333.15 K | 1093.7
343.15 K | 1085.9

CC(O)COC(C)COC(C)CO (configuration not stated) [2-[2-(2-hydroxypropoxy)propoxy]-1-propanol]
[1], 101 kPa
Conditions | mass density [kg/m3]
293.15 K | 1017.5
303.15 K | 1009.5
313.15 K | 1001.5
323.15 K | 993.4
333.15 K | 985.2
343.15 K | 976.9

CC(O)COC(C)COC(C)CO (configuration not stated) [2-[2-(2-hydroxypropoxy)propoxy]-1-propanol] + O
mass density [kg/m3], [2]
Conditions | 293.15 K | 303.15 K | 313.15 K | 323.15 K | 333.15 K | 343.15 K
w1 = 0.2 | 1019.4 | 1015.2 | 1010.2 | 1004.5 | 998.4 | 991.6
w1 = 0.4 | 1037.1 | 1030.1 | 1022.9 | 1015.5 | 1007.7 | 999.6
w1 = 0.6 | 1041.1 | 1033.2 | 1025.2 | 1017.2 | 1008.7 | 1000.2
w1 = 0.8 | 1030.7 | 1023.1 | 1015.4 | 1007.6 | 999.5 | 990.9
w1 = 1 | 1017.5 | 1009.5 | 1001.5 | 993.4 | 985.2 | 976.9
